Reference: publication PMC3462775 (PLoS ONE, 2012)
≈ marks a conversion by molar mass, not a printed value. Bridge positions count the residues as written; N and C are the ends. Square brackets hold non-standard residues; d marks the D form. Peptide text beside a SMILES is read from it. I, II: the chains in the order shown. βAla = NCCC(=O)O

What was measured:
[1] = Binding of LPS and LTA to immobilized peptides, surface plasmon resonance; settings: SPR, biotinylated peptides immobilized on SA flow cells; LPS/LTA 10 µg/ml in HBS-EP+ pH 7.4, injected 180 sec at 30 µl/min
Method: Biotinylated peptides were immobilized on SA coated flow cells. M33-L and M33-D peptides, diluted to 10 µg/ml in HBS-EP+ buffer (10 mM Hepes, 150 mM NaCl, 3.4 mM EDTA, 0.05% polysorbate 20 pH 7.4), were injected for 90 sec at a flow rate of 10 µl/min, obtaining 550 RU and 580 RU for M33-L and M33-D respectively.
LTA and LPS molecules from different species (LPS from E. coli, K. pneumonia, P. aeruginosa and LTA from S. aureus and S. faecalis, were obtained from Sigma-Aldrich: L-3012, L-4268, L9143, L2515 and L4015, respectively) were diluted in HBS-EP+ buffer at the concentration of 10 µg/ml and injected for 180 sec with a flow rate of 30 µl/min over immobilized peptides. An empty flow cell was used as reference.

S.epidermidis 6154 = format: cell-based, Staphylococcus epidermidis
Method: (§1) MICs were determined using a standard microdilution assay as recommended by the Clinical and Laboratory Standards Institute. Assays were performed in triplicate using cation-supplemented Mueller-Hinton (MH) broth (Becton Dickinson, Franklin Lakes, NJ, USA) and a bacterial inoculum of 5x10^4 CFU/well, in a final volume of 100 µl. The tested concentrations ranged from 0.1 µM to 24 µM for both peptides. Results were recorded after 18–20 h of incubation at 37°C.

K.pneumoniae ATCC 13833 = assay: MIC, standard microdilution assay; format: cell-based, Klebsiella pneumoniae; settings: Reference strain, wild type; CLSI microdilution, cation-supplemented Mueller-Hinton broth, 5x10^4 CFU/well, 18–20 h at 37°C, triplicate
Method: as §1

S.epidermidis ATCC 14990 = assay: MIC, standard microdilution assay; format: cell-based, Staphylococcus epidermidis; settings: Reference strain, wild type; CLSI microdilution, cation-supplemented Mueller-Hinton broth, 5x10^4 CFU/well, 18–20 h at 37°C, triplicate
Method: as §1

[2] = Calcein release from liposomes mimicking the membrane of E. coli; settings: PE/PG 7∶3 liposomes, 50 µM lipid, 10 min at 20°C, peptide 0,5 to 15 µM, fluorescence 490/517 nm, three independent experiments
From the text: (§2) To investigate interaction of peptides M33-D and M33-L with the bacterial membrane, including possible perturbation, we used vesicles with two lipid compositions to mimic the membrane of S. aureus (CL/PG, 4∶6 mol/mol) and E. coli (PE/PG, 7∶3 mol/mol). […] The peptide-induced effect was dose-dependent in both vesicle lipid compositions. […] No significant differences in the effects induced by M33-D and M33-L were evident, although the D peptide seemed slightly more efficient towards CL/PG liposomes at doses above 8 µM. […] The greater perturbing effect of both forms of M33 on PE/PG vesicles, compared to vesicles containing cardiolipin, was evident.
(§3) Calcein-loaded liposomes of two different composition (PE/PG, 7∶3 mol/mol and CL/PG, 4∶6 mol/mol) were prepared as follows. […] Lipid concentration of vesicles was measured by the method of Stewart and the final concentration used for all measurements was 50 µM. Calcein fluorescence in the vesicles is self-quenched and leakage was measured by relief of quenching; the measurements were carried out at 517 nm, exciting at 490 nm, with a Perkin-Elmer LS 50B spectrofluorimeter. […] Leakage was calculated by the equation: [drawing 1] where F and Ft are fluorescence […] addition of detergent and F0 the fluorescence of intact vesicles.

K.pneumoniae 7086042 = format: cell-based, Klebsiella pneumoniae
Method: as §1

S.aureus ATCC 29213 = assay: MIC, standard microdilution assay; format: cell-based, Staphylococcus aureus; settings: Reference strain, wild type; CLSI microdilution, cation-supplemented Mueller-Hinton broth, 5x10^4 CFU/well, 18–20 h at 37°C, triplicate
Method: as §1

[3] = Calcein release from liposomes mimicking the membrane of S. aureus; settings: CL/PG 4∶6 liposomes, 50 µM lipid, 10 min at 20°C, peptide 0,5 to 15 µM, fluorescence 490/517 nm, three independent experiments
From the text: as §2, §3

S. aureus USA300 = assay: In vivo anti-MRSA activity, lethal i.p. infection of mice; settings: Balb-c mice (20 g), groups of 5, i.p. LD100 (1×10^6) S. aureus USA 300 in 7% mucin, single i.p. peptide 25 mg/kg 30 min later; for survival: after 7 days
Method: The smallest number of bacteria causing 100% lethal infection (LD100) after intra-peritoneal (i.p.) injection was 1×10^6 in the presence of 7% mucin. An LD100 killed mice within 20 hours. Mice were infected with the LD100 of bacteria and treated i.p. with the peptides 30 minutes later.
Figure 4 In vivo antibacterial activity of tetrabranched M33-L and M33-D peptides. Balb-c mice (20 g) were injected i.p. with a lethal amount of S. aureus USA300 cells. Dashed line (Ctr), injection with bacteria and no peptides; dotted line, injection with bacteria and a single injection of M33-L peptide (25 mg/kg) 30 min later; continuous line, injection with bacteria and a single injection of M33-D peptide (25 mg/kg) 30 min later.
Animal procedures were approved by the Ethical Committee of the Azienda Ospedaliera Universitaria Senese on November 18, 2010. Balb-c mice (20 g) were infected i.p. with lethal amounts of bacteria (see results) mixed in 500 µl PBS +7% mucin (mucin from porcine stomach, type II, Sigma-Aldrich). Bacteria were cultured overnight, centrifuged, mixed in sterile PBS, and measured by spectrophotometer. Possible further dilutions in PBS were sometimes necessary to obtain the right amount of bacteria. Groups consisted of 5 animals. Moribund animals were killed humanely to avoid unnecessary distress. Surviving mice were monitored for 7 days. Thirty minutes after bacterial administration, peptides were inoculated i.p. with 0.5 ml PBS solution containing the indicated amount of peptide (see Results). Control animals received only PBS. P values were calculated using GraphPad Prism software.

P.aeruginosa ATCC 27853 = assay: MIC, standard microdilution assay; format: cell-based, Pseudomonas aeruginosa; settings: Reference strain, wild type; CLSI microdilution, cation-supplemented Mueller-Hinton broth, 5x10^4 CFU/well, 18–20 h at 37°C, triplicate
Method: as §1

SMILES	binding and kinetic rates of LPS and LTA, M33-L compared with M33-D (in words) [1]	MIC (S.epidermidis 6154) [µM]	MIC (K.pneumoniae ATCC 13833) [µM]	MIC (S.epidermidis ATCC 14990) [µM]	peptide concentration giving total calcein leakage [2] [µM]	MIC (K.pneumoniae 7086042) [µM]	MIC (S.aureus ATCC 29213) [µM]	peptide concentration giving maximum calcein release [3]	survival (S. aureus USA300) [%]	MIC (P.aeruginosa ATCC 27853) [µM]	mortality (in words) (S. aureus USA300)
CC[C@@H](C)[C@@H](NC(=O)[C@@H](CCCCN)NC(=O)[C@H](N)CCCCN)C(=O)N[C@H](CCCNC(=N)N)C(=O)N[C@@H](C(=O)N[C@H](CCCNC(=N)N)C(=O)N[C@H](CC(C)C)C(=O)N[C@H](CO)C(=O)N[C@H](C)C(=O)NCCCC[C@H](NC(=O)[C@@H](C)NC(=O)[C@@H](CO)NC(=O)[C@@H](CC(C)C)NC(=O)[C@@H](CCCNC(=N)N)NC(=O)[C@H](NC(=O)[C@@H](CCCNC(=N)N)NC(=O)[C@H](NC(=O)[C@@H](CCCCN)NC(=O)[C@H](N)CCCCN)[C@H](C)CC)C(C)C)C(=O)NCCCC[C@H](NC(=O)[C@H](CCCCNC(=O)[C@@H](C)NC(=O)[C@@H](CO)NC(=O)[C@@H](CC(C)C)NC(=O)[C@@H](CCCNC(=N)N)NC(=O)[C@H](NC(=O)[C@@H](CCCNC(=N)N)NC(=O)[C@H](NC(=O)[C@@H](CCCCN)NC(=O)[C@H](N)CCCCN)[C@H](C)CC)C(C)C)NC(=O)[C@@H](C)NC(=O)[C@@H](CO)NC(=O)[C@@H](CC(C)C)NC(=O)[C@@H](CCCNC(=N)N)NC(=O)[C@H](NC(=O)[C@@H](CCCNC(=N)N)NC(=O)[C@H](NC(=O)[C@@H](CCCCN)NC(=O)[C@H](N)CCCCN)[C@H](C)CC)C(C)C)C(=O)NCCC(=O)O)C(C)C [M33-D] (I: H-[dK][dK][dI][dR][dV][dR][dL][dS][dA]KK[βAla]-OH / II: H-[dK][dK][dI][dR][dV][dR][dL][dS][dA]K / III: H-[dK][dK][dI][dR][dV][dR][dL][dS][dA] / IV: H-[dK][dK][dI][dR][dV][dR][dL][dS][dA]; amide I:10-IV:C, I:11-II:C, II:10-III:C; N-terminus assumed)	No significant difference in binding or kinetic rates	0.7 (≈ 3.28 µg/mL)	3 (≈ 14 µg/mL)	0.4 (≈ 1.87 µg/mL)	5	6 (≈ 28.1 µg/mL)	1.5 (≈ 7.02 µg/mL)	greater than 10 µM	100	1.5 (≈ 7.02 µg/mL)	
CC[C@H](C)[C@H](NC(=O)[C@H](CCCCN)NC(=O)[C@@H](N)CCCCN)C(=O)N[C@@H](CCCNC(=N)N)C(=O)N[C@H](C(=O)N[C@@H](CCCNC(=N)N)C(=O)N[C@@H](CC(C)C)C(=O)N[C@@H](CO)C(=O)N[C@@H](C)C(=O)NCCCC[C@H](NC(=O)[C@H](C)NC(=O)[C@H](CO)NC(=O)[C@H](CC(C)C)NC(=O)[C@H](CCCNC(=N)N)NC(=O)[C@@H](NC(=O)[C@H](CCCNC(=N)N)NC(=O)[C@@H](NC(=O)[C@H](CCCCN)NC(=O)[C@@H](N)CCCCN)[C@@H](C)CC)C(C)C)C(=O)NCCCC[C@H](NC(=O)[C@H](CCCCNC(=O)[C@H](C)NC(=O)[C@H](CO)NC(=O)[C@H](CC(C)C)NC(=O)[C@H](CCCNC(=N)N)NC(=O)[C@@H](NC(=O)[C@H](CCCNC(=N)N)NC(=O)[C@@H](NC(=O)[C@H](CCCCN)NC(=O)[C@@H](N)CCCCN)[C@@H](C)CC)C(C)C)NC(=O)[C@H](C)NC(=O)[C@H](CO)NC(=O)[C@H](CC(C)C)NC(=O)[C@H](CCCNC(=N)N)NC(=O)[C@@H](NC(=O)[C@H](CCCNC(=N)N)NC(=O)[C@@H](NC(=O)[C@H](CCCCN)NC(=O)[C@@H](N)CCCCN)[C@@H](C)CC)C(C)C)C(=O)NCCC(=O)O)C(C)C [M33-L] (I: H-KKIRVRLSAKK[βAla]-OH / II: H-KKIRVRLSAK / III: H-KKIRVRLSA / IV: H-KKIRVRLSA; amide I:10-IV:C, I:11-II:C, II:10-III:C; N-terminus assumed)	No significant difference in binding or kinetic rates	3 (≈ 14 µg/mL)	1.5 (≈ 7.02 µg/mL)	1.5 (≈ 7.02 µg/mL)	5	3 (≈ 14 µg/mL)	6 (≈ 28.1 µg/mL)	greater than 10 µM	0	1.5 (≈ 7.02 µg/mL)	mortality overlapping that of controls
